The source of these data is patent publication US10336709B2, “Lp-PLA2 inhibitors” (ABIDE THERAPEUTICS, INC., priority 2015, dated 2019).

One experiment deals with T1, Lp-PLA2 (Mus musculus, UniProt Q60963).
T1 construct: Mouse brain membrane proteomes (50 μL, 1.0 mg/mL total protein concentration) were preincubated; from tissue; host or cells: mouse brain membrane fraction
T1 sequence (Q60963 22-440): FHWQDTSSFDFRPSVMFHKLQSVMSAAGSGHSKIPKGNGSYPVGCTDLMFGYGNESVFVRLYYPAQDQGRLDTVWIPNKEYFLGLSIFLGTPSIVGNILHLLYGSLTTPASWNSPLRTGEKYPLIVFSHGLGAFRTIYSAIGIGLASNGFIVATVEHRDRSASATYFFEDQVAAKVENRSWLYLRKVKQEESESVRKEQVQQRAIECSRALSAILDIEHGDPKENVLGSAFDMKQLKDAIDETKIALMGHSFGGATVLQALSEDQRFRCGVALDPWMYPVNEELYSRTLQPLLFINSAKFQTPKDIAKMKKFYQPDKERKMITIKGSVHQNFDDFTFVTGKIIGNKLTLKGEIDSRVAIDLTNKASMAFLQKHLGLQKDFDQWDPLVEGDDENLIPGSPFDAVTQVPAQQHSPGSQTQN
Put plainly: In vitro competitive activity-based protein profiling (HT-01 probe, gel band PLA2G7). The conditions noted are these: mouse brain membrane proteomes; for IC50: 30 min preincubation at 37° C. The experiment is classed as biochemical. Set-up: Lp-PLA2 % at 100 μM: scale not given here. How it is done:
(§1) Compounds are tested to assess their Lp-PLA2 and serine hydrolase activity using the following in vitro assays.
(§2) In Vitro Competitive Activity-Based Protein Profiling
(§3) Mouse brain membrane proteomes (50 μL, 1.0 mg/mL total protein concentration) were preincubated with varying concentrations of inhibitors at 37° C. After 30 min, HT-01 probe (1.0 μL, 50 μM in DMSO) was added and the mixture was incubated for another 30 min at room temperature. Reactions were quenched with SDS loading buffer (15 μL-4×) and run on SDS-PAGE gels. Following gel imaging, serine hydrolase activity was determined by measuring fluorescent intensity of gel bands corresponding to PLA2G7 and ABHD6 using ImageJ 1.49 k software.

For the next experiment, the target named is T2, ABHD6 (Mus musculus, UniProt Q8R2Y0).
T2 construct: Mouse brain membrane proteomes (50 μL, 1.0 mg/mL total protein concentration) were preincubated; from tissue; host or cells: mouse brain membrane fraction
T2 sequence (Q8R2Y0 1-336): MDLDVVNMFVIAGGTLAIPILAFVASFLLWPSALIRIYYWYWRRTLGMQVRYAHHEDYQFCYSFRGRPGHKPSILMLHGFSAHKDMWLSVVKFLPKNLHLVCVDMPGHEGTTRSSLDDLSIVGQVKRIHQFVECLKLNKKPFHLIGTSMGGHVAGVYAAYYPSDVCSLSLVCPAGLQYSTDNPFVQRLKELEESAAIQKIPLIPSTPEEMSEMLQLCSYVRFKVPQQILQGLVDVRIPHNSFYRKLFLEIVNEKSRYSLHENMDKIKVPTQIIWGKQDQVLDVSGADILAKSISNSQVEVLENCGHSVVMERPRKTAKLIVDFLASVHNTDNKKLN
Nature of the experiment: In vitro competitive activity-based protein profiling (HT-01 probe, gel band ABHD6). The experiment is classed as biochemical. The arrangement: ABHD6 % at 100 μM: scale not given here. The conditions noted are these: mouse brain membrane proteomes; for IC50: 30 min preincubation at 37° C. How it is done:
as §1, §2, §3

`CC(C)[C@H]1NC(=O)N(OC(=O)N2CCN(c3cccc(C(=O)N4CCOCC4)c3Cl)CC2)C1=O` [Example 6, (R)-4-isopropyl-2,5-dioxoimidazolidin-1-yl 4-(2-chloro-3-(morpholine-4-carbonyl)phenyl)piperazine-1-carboxylate] displayed an inhibition at 10 µM at Lp-PLA2 of 75%. The IC50 on ABHD6 lay in the range of 100 to 1000 nM.

`O=C(ON1C(=O)N[C@@H](Cc2ccccc2)C1=O)N1CCN(c2cccc(C(=O)N3CCOCC3)c2Cl)CC1` [Example 9, (S)-4-benzyl-2,5-dioxoimidazolidin-1-yl 4-(2-chloro-3-(morpholine-4-carbonyl)phenyl)piperazine-1-carboxylate]: the IC50 was less than 100 nM at Lp-PLA2 and 100 to 1000 nM at ABHD6.

Consider `COc1ccc(C[C@@H]2NC(=O)N(OC(=O)N3CCN(c4cccc(C(=O)N5CCCCC5)c4Cl)CC3)C2=O)cc1` [Example 24, (S)-4-(4-methoxybenzyl)-2,5-dioxoimidazolidin-1-yl 4-(2-chloro-3-(piperidine-1-carbonyl)phenyl)piperazine-1-carboxylate], for which the half-inhibitory concentration (IC50) on Lp-PLA2 and on ABHD6 was less than 100 nM throughout.

`O=C(ON1C(=O)N[C@@H](Cc2ccccc2)C1=O)N1CCN(c2cccc(C(=O)N3CCCCC3)c2)CC1` [Example 13, (S)-4-benzyl-2,5-dioxoimidazolidin-1-yl 4-(3-(piperidine-1-carbonyl)phenyl)piperazine-1-carboxylate]: the half-maximal inhibitory concentration (IC50) on Lp-PLA2 and on ABHD6 was less than 100 nM each time.

For the molecule `CC(C)[C@H]1NC(=O)N(OC(=O)N2CCN(c3cccc(C(=O)N4CCCC4)c3Cl)CC2)C1=O` [Example 4, (R)-4-isopropyl-2,5-dioxoimidazolidin-1-yl 4-(2-chloro-3-(pyrrolidine-1-carbonyl)phenyl)piperazine-1-carboxylate], at 10 µM the inhibition on Lp-PLA2 was 75%. Also, the half-maximal inhibitory concentration (IC50) at ABHD6 fell in the range of 100 to 1000 nM.

Regarding `CN1C(=O)N(OC(=O)N2CCN(c3cccc(C(=O)N4CCCCC4)c3Cl)CC2)C(=O)[C@@H]1Cc1ccccc1` [Example 20, (S)-4-benzyl-3-methyl-2,5-dioxoimidazolidin-1-yl 4-(2-chloro-3-(piperidine-1-carbonyl)phenyl)piperazine-1-carboxylate], the IC50 on Lp-PLA2 and on ABHD6 was less than 100 nM in each case.

In the case of `O=C(ON1C(=O)N[C@@H](Cc2ccccc2)C1=O)N1CCN(c2cccc(C(=O)N3CCCC3)c2Cl)CC1` [Example 7, (S)-4-benzyl-2,5-dioxoimidazolidin-1-yl 4-(2-chloro-3-(pyrrolidine-1-carbonyl)phenyl)piperazine-1-carboxylate], the IC50 at Lp-PLA2 and at ABHD6 was less than 100 nM each time.

As to `O=C(ON1C(=O)N[C@@H](Cc2ccc(Cl)cc2)C1=O)N1CCN(c2cccc(C(=O)N3CCCCC3)c2Cl)CC1` [Example 23, (S)-4-(4-chlorobenzyl)-2,5-dioxoimidazolidin-1-yl 4-(2-chloro-3-(piperidine-1-carbonyl)phenyl)piperazine-1-carboxylate], on Lp-PLA2, the “Lp-PLA2 % at 100 μM” value is reported as 50% at 100 μM. In addition, the “ABHD6 % at 100 μM” value at ABHD6 was 50% at 100 μM.

Consider `NC(=O)c1cccc(N2CCN(C(=O)ON3C(=O)N[C@@H](Cc4ccccc4)C3=O)CC2)c1Cl` [Example 18, (S)-4-benzyl-2,5-dioxoimidazolidin-1-yl 4-(3-carbamoyl-2-chlorophenyl)piperazine-1-carboxylate], for which the “Lp-PLA2 % at 100 μM” value on Lp-PLA2 was 25% at 100 μM. Also, the “ABHD6 % at 100 μM” value on ABHD6 is 25% at 100 μM.

For the molecule `O=C(ON1C(=O)N[C@@H](Cc2ccccc2)C1=O)N1CCN(c2ccc(C(=O)N3CCCCC3)cc2Cl)CC1` [Example 15, (S)-4-benzyl-2,5-dioxoimidazolidin-1-yl 4-(2-chloro-4-(piperidine-1-carbonyl)phenyl)piperazine-1-carboxylate], the IC50 at Lp-PLA2 and at ABHD6 was less than 100 nM in each case.

For `CC(C)[C@@H]1NC(=O)N(OC(=O)N2CCN(c3cccc(C(=O)N4CCOCC4)c3Cl)CC2)C1=O` [Example 3, (S)-4-isopropyl-2,5-dioxoimidazolidin-1-yl 4-(2-chloro-3-(morpholine-4-carbonyl)phenyl)piperazine-1-carboxylate], the concentration for half-maximal inhibition (IC50) at Lp-PLA2 and on ABHD6 was 100 to 1000 nM each time.

Take `CC(C)[C@@H]1NC(=O)N(OC(=O)N2CCN(c3cccc(C(=O)N4CCCCC4)c3Cl)CC2)C1=O` [Example 2, (S)-4-isopropyl-2,5-dioxoimidazolidin-1-yl 4-(2-chloro-3-(piperidine-1-carbonyl)phenyl)piperazine-1-carboxylate]: the half-inhibitory concentration (IC50) at Lp-PLA2 and at ABHD6 was 100 to 1000 nM each time.

For the molecule `CN1CCN(C(=O)c2cccc(N3CCN(C(=O)ON4C(=O)N[C@@H](Cc5ccccc5)C4=O)CC3)c2Cl)CC1` [Example 14, (S)-4-benzyl-2,5-dioxoimidazolidin-1-yl 4-(2-chloro-3-(4-methylpiperazine-1-carbonyl)phenyl)piperazine-1-carboxylate], the half-maximal inhibitory concentration (IC50) at Lp-PLA2 and at ABHD6 was less than 100 nM throughout.

As to `CC(C)[C@@H]1NC(=O)N(OC(=O)N2CCN(c3cccc(C(=O)N4CCCC4)c3Cl)CC2)C1=O` [Example 1, (S)-4-isopropyl-2,5-dioxoimidazolidin-1-yl 4-(2-chloro-3-(pyrrolidine-1-carbonyl)phenyl)piperazine-1-carboxylate], the IC50 at Lp-PLA2 was 100 to 1000 nM; on ABHD6 it was less than 100 nM.

Regarding `CN(C)C(=O)c1cccc(N2CCN(C(=O)ON3C(=O)N[C@@H](Cc4ccccc4)C3=O)CC2)c1Cl` [Example 16, (S)-4-benzyl-2,5-dioxoimidazolidin-1-yl 4-(2-chloro-3-(dimethylcarbamoyl)phenyl)piperazine-1-carboxylate], the half-inhibitory concentration (IC50) at Lp-PLA2 and on ABHD6 was less than 100 nM each time.

As to `O=C(ON1C(=O)N[C@H](Cc2ccccc2)C1=O)N1CCN(c2cccc(C(=O)N3CCOCC3)c2Cl)CC1` [Example 12, (R)-4-benzyl-2,5-dioxoimidazolidin-1-yl 4-(2-chloro-3-(morpholine-4-carbonyl)phenyl)piperazine-1-carboxylate], the 50% inhibitory concentration (IC50) at Lp-PLA2 and on ABHD6 was less than 100 nM in each case.

As for `CC(C)[C@H]1NC(=O)N(OC(=O)N2CCN(c3cccc(C(=O)N4CCCCC4)c3Cl)CC2)C1=O` [Example 5, (R)-4-isopropyl-2,5-dioxoimidazolidin-1-yl 4-(2-chloro-3-(piperidine-1-carbonyl)phenyl)piperazine-1-carboxylate], testing at 10 µM at Lp-PLA2 gave an inhibition of 75%. Further, on ABHD6, the IC50 fell in the range of 100 to 1000 nM.

Consider `O=C(ON1C(=O)N[C@@H](Cc2ccccc2)C1=O)N1CCCN(c2cccc(C(=O)N3CCCCC3)c2Cl)CC1` [Example 21, (S)-4-benzyl-2,5-dioxoimidazolidin-1-yl 4-(2-chloro-3-(piperidine-1-carbonyl)phenyl)-1,4-diazepane-1-carboxylate], for which the inhibition at 10 µM on Lp-PLA2 and at ABHD6 (at 10 μM) was 100% each time.

As for `O=C(ON1C(=O)N[C@@H](Cc2ccc(C(F)(F)F)cc2)C1=O)N1CCN(c2cccc(C(=O)N3CCCCC3)c2Cl)CC1` [Example 22, (S)-2,5-dioxo-4-(4-(trifluoromethyl)benzyl)imidazolidin-1-yl 4-(2-chloro-3-(piperidine-1-carbonyl)phenyl)piperazine-1-carboxylate], the IC50 on Lp-PLA2 and on ABHD6 was less than 100 nM each time.

Take `O=C(ON1C(=O)N[C@H](Cc2ccccc2)C1=O)N1CCN(c2cccc(C(=O)N3CCCCC3)c2Cl)CC1` [Example 11, (R)-4-benzyl-2,5-dioxoimidazolidin-1-yl 4-(2-chloro-3-(piperidine-1-carbonyl)phenyl)piperazine-1-carboxylate]: the IC50 on Lp-PLA2 and at ABHD6 was less than 100 nM throughout.

Regarding `O=C(ON1C(=O)N[C@@H](Cc2ccccc2)C1=O)N1CCN(c2cccc(C(=O)N3CCCCC3)c2Cl)CC1` [Example 8, (S)-4-benzyl-2,5-dioxoimidazolidin-1-yl 4-(2-chloro-3-(piperidine-1-carbonyl)phenyl)piperazine-1-carboxylate], the IC50 on Lp-PLA2 is less than 100 nM; on ABHD6, 100 to 1000 nM.

`O=C(ON1C(=O)N[C@H](Cc2ccccc2)C1=O)N1CCN(c2cccc(C(=O)N3CCCC3)c2Cl)CC1` [Example 10, (R)-4-benzyl-2,5-dioxoimidazolidin-1-yl 4-(2-chloro-3-(pyrrolidine-1-carbonyl)phenyl)piperazine-1-carboxylate]: the 50% inhibitory concentration (IC50) on Lp-PLA2 and on ABHD6 was less than 100 nM in each case.

A word on the inhibition: it is how much of the control response was suppressed. What is called IC50 is the midpoint of a concentration-inhibition curve.
